Columns and labels:
[1] = target: human recombinant GST cleaved CSNK1D (Homo sapiens (Human), UniProt P48730); experiment: Purified enzyme assay (ADP-Glo Kinase Assay); format: biochemical; conditions: 2 nM CSNK1D, peptide substrate 150 μM, ATP 20 μM, 45 minutes room temperature
Description: In this assay, CSNK1D phosphorylates a substrate peptide PLSRTL-pS-VASLPGL in the presence of ATP. […] This assay monitors CSNK1D kinase activity by measuring the amount of ADP produced in the assay. A substrate mix is prepared by diluting peptide substrate (final concentration 150 μM) with ATP (final concentration 20 μM) in assay buffer (50 mM Tris/HCl pH 7.4+10 mM MgCl2+1 mM DTT+0.1% BSA). The substrate mix is added to each well of a low volume, 384-well, white opaque plate. Test compounds were diluted in HBSS and added in a dose-response to the plate. To start the reaction, 2 nM of constitutively active human recombinant GST cleaved CSNK1D (University of Dundee, clone DU 19064, stored at 0.28 mg/mL in 50 mM Tris/HCl pH 7.5, 150 mM NaCl, 270 mM Sucrose, 0.1 mM EGTA, 0.1% 2-mercaptoethanol, 0.02% Brij-35.1 mM benzamidine, 0.2 mM PMSF) was added to each well and the plate centrifuged for 5 minutes at 1500 rpm. The total volume of each reaction is 5 ul (2 μL of substrate mix, 1 μL of diluted compounds, and 2 μL of human recombinant CSNK1D). The plates are incubated for 45 minutes at room temperature.
ADP was quantified using the ADP-Glo™ Kinase Assay. ADP-Glo Reagent (5 μL) was added to each well. After a 1 hour incubation at room temperature, Kinase Detection Reagent (10 μL) was added to each well and incubated for 30 minutes. Luminescence was measured on the Perkin Elmer Wallac EnVision 2104 Multi-label Reader. The raw data from the Envision is used to calculate percent activity.

[2] = target: human CSNK1D tagged with nanoluciferase (Homo sapiens (Human), UniProt P48730); experiment: Whole Cell nBRET CSNK1D Binding Assay; conditions: living CHO cells stably expressing human CSNK1D-nanoluciferase; NanoBret tracer 130 nM; 2 hours 37° C.; read-out: CSNK1D BRET IC50
Description: This cellular binding assay uses a bioluminescence resonance energy transfer to measure human CSNK1D binding activity in living Chinese Hamster Ovary (CHO) cells that are stably expressing human CSNK1D tagged with nanoluciferase. The cells were grown to confluency in growth media (DMEM:F12, 50 u/mLPen/Strep, […] glutamine, and 0.6 mg/mL G418) in 10 cm^2 dishes. Cells were seeded onto white, opaque 384-well plates (Corning, cat #3704) at a density of 8,000 cells/well in serum-free OptiMEM and left to incubated overnight at 37° C., […]. The next day, test compounds were added in a dose response to the plate followed by a NanoBret tracer (130 nM). The plate is mixed on an orbital shaker for 30 seconds, then placed in a 37° C. incubator for 2 hours. NanoBret Nano-Glo Substrate solution (20 μL) is added to all wells and incubated for 3 minutes at room temperature. Donor (450 nm) and acceptor (630 nm) emissions are then measured within 10 minutes using a ClarioStar plate reader. The data is used to calculate millibret units, defined as (E630/E450)*1000. Bret emissions are then graphed against the log of compound concentrations and these graphs are used to determine the IC50 of each compound.

Sequence of human CSNK1D tagged with nanoluciferase (P48730 whole entry): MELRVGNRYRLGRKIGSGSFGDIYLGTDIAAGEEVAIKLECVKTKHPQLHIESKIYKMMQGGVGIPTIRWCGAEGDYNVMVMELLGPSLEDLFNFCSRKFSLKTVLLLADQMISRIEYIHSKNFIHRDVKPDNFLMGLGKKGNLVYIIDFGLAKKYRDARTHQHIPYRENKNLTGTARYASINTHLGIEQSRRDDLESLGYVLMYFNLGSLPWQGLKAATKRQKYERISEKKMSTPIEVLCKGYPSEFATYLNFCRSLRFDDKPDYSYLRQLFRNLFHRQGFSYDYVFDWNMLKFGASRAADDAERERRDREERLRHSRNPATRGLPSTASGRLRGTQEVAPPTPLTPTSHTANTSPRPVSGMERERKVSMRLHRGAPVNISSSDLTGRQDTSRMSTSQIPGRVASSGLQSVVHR
Sequence of human recombinant GST cleaved CSNK1D (P48730 whole entry): as above

AC50 [1] | IC50 [2] | Structure (SMILES)
144 nM | > 10000 nM | Cn1cc(-c2ccnc3c2CCNC3)c(-c2ccc(F)cn2)n1 [Example 113, 4-[3-(5-Fluoro-2-pyridyl)-1-methyl-pyrazol-4-yl]-5,6,7,8-tetrahydro-1,7-naphthyridine]
25 nM | 522 nM | COc1cc2nccc(-c3cn(C)nc3-c3ccc(F)cn3)c2cn1 [Example 154, 4-[3-(5-Fluoro-2-pyridyl)-1-methyl-pyrazol-4-yl]-7-methoxy-1,6-naphthyridine]
9 nM | 315 nM | CC(=O)Nc1cc(-c2cn(C)nc2-c2ccc(F)cn2)ccn1 [Example 115, N-(4-(3-(5-Fluoropyridin-2-yl)-1-methyl-1H-pyrazol-4-yl)pyridin-2-yl)acetamide]
44 nM | 326 nM | CC(C)n1cc(-c2ccnc3[nH]ncc23)c(-c2ccc(F)cn2)n1 [Example 59, 4-(3-(5-Fluoropyridin-2-yl)-1-isopropyl-1H-pyrazol-4-yl)-1H-pyrazolo[3,4-b]pyridine]
41 nM | 1420 nM | Cn1cc(-c2ccnc3[nH]ccc23)c(-c2cnco2)n1 [Example 6, 5-(1-Methyl-4-(1H-pyrrolo[2,3-b]pyridin-4-yl)-1H-pyrazol-3-yl)oxazole]
5 nM | 122 nM | Cc1cc(-c2cn(CC3COC3)nc2-c2ccc(F)cn2)c2cn[nH]c2n1 [Example 50, 4-[3-(5-Fluoro-2-pyridyl)-1-(oxetan-3-ylmethyl)pyrazol-4-yl]-6-methyl-1H-pyrazolo[3,4-b]pyridine]
7 nM | 181 nM | Cn1cc(-c2ccnc3[nH]ccc23)c(-c2ccsn2)n1 [Example 15, 3-(1-Methyl-4-(1H-pyrrolo[2,3-b]pyridin-4-yl)-1H-pyrazol-3-yl)isothiazole]
84 nM | 1460 nM | Cc1cc2c(-c3cn(C)nc3-c3ccc(F)cn3)ccnc2[nH]1 [Example 81, 4-(3-(5-Fluoropyridin-2-yl)-1-methyl-1H-pyrazol-4-yl)-2-methyl-1H-pyrrolo[2,3-b]pyridine]
18 nM | 506 nM | Cc1cc(-c2cn(C)nc2-c2cncc(Cl)c2)c2cn[nH]c2n1 [Example 139, 4-[3-(5-Chloro-3-pyridyl)-1-methyl-pyrazol-4-yl]-6-methyl-1H-pyrazolo[3,4-b]pyridine]
1100 nM | > 10000 nM | Cn1cc(-c2ccnc3c(F)cccc23)c(-c2ccc(F)cn2)n1 [Example 147, 8-Fluoro-4-[3-(5-fluoro-2-pyridyl)-1-methyl-pyrazol-4-yl]quinoline]
54 nM | 1570 nM | CC(C)c1cc2c(-c3cn(C)nc3-c3ccc(F)cn3)ccnc2[nH]1 [Example 83, 4-(3-(5-Fluoropyridin-2-yl)-1-methyl-1H-pyrazol-4-yl)-2-isopropyl-1H-pyrrolo[2,3-b]pyridine]
3 nM | 76 nM | Cn1cc(-c2ccnc(NC(=O)C3CC3)c2)c(-c2ccc(F)cn2)n1 [Example 116, N-(4-(3-(5-Fluoropyridin-2-yl)-1-methyl-1H-pyrazol-4-yl)pyridin-2-yl)cyclopropanecarboxamide]
31 nM | 264 nM | Cn1cc(-c2ccnc3cc(C(F)(F)F)ccc23)c(-c2ccc(F)cn2)n1 [Example 107, 4-[3-(5-Fluoro-2-pyridyl)-1-methyl-pyrazol-4-yl]-7-(trifluoromethyl)quinoline]
7 nM | 52 nM | Cc1cnc2[nH]ccc2c1-c1cn(C)nc1-c1ccc(F)cn1 [Example 79, 4-[3-(5-Fluoro-2-pyridyl)-1-methyl-pyrazol-4-yl]-5-methyl-1H-pyrrolo[2,3-b]pyridine]
50 nM | 3120 nM | Cc1ccc(-c2nn(C)cc2-c2ccnc3[nH]ccc23)nc1 [Example 31, 4-[1-Methyl-3-(5-methyl-2-pyridyl)pyrazol-4-yl]-1H-pyrrolo[2,3-b]pyridine]
10 nM | 187 nM | Cn1cc(-c2ccnc3[nH]c(C4(O)COC4)cc23)c(-c2ccc(F)cn2)n1 [Example 94, 3-(4-(3-(5-Fluoropyridin-2-yl)-1-methyl-1H-pyrazol-4-yl)-1H-pyrrolo[2,3-b]pyridin-2-yl)oxetan-3-ol]
317 nM | 17800 nM | Cn1cc(-c2ccnc3[nH]ncc23)c(-c2ccc(C(F)F)cn2)n1 [Example 33, 4-(3-(5-(Difluoromethyl)pyridin-2-yl)-1-methyl-1H-pyrazol-4-yl)-1H-pyrazolo[3,4-b]pyridine]
39 nM | 579 nM | Cn1cc(-c2ccnc3cc(Br)cnc23)c(-c2ccc(F)cn2)n1 [Example 153, 3-Bromo-8-[3-(5-fluoro-2-pyridyl)-1-methyl-pyrazol-4-yl]-1,5-naphthyridine]
7 nM | 53 nM | Cn1cc(-c2ccnc3[nH]cc(F)c23)c(-c2ccc(F)cn2)n1 [Example 77, 3-Fluoro-4-[3-(5-fluoro-2-pyridyl)-1-methyl-pyrazol-4-yl]-1H-pyrrolo[2,3-b]pyridine]
84 nM | 2190 nM | Cn1cc(-c2ccnc3[nH]ccc23)c(-c2cnccn2)n1 [Example 46, 4-(1-Methyl-3-pyrazin-2-yl-pyrazol-4-yl)-1H-pyrrolo[2,3-b]pyridine]
38 nM | 890 nM | Cc1cncc(-c2nn(C)cc2-c2cc(C)nc3[nH]ncc23)c1 [Example 137, 6-Methyl-4-[1-methyl-3-(5-methyl-3-pyridyl)pyrazol-4-yl]-1H-pyrazolo[3,4-b]pyridine]
16 nM | 568 nM | Cn1cnc(-c2nn(C)cc2-c2ccnc3[nH]ccc23)c1 [Example 9, 4-(1-Methyl-3-(1-methyl-1H-imidazol-4-yl)-1H-pyrazol-4-yl)-1H-pyrrolo[2,3-b]pyridine]
31 nM | 8710 nM | Cn1cc(-c2ccnc3[nH]cc(CC#N)c23)c(-c2ccc(F)cn2)n1 [Example 120, 2-[4-[3-(5-Fluoro-2-pyridyl)-1-methyl-pyrazol-4-yl]-1H-pyrrolo[2,3-b]pyridin-3-yl]acetonitrile]
118 nM | 2360 nM | Cn1cc(-c2ccnc3cc[nH]c23)c(-c2ccc(F)cn2)n1 [Example 4, 7-(3-(5-Fluoropyridin-2-yl)-1-methyl-1H-pyrazol-4-yl)-1H-pyrrolo[3,2-b]pyridine]
40 nM | 778 nM | Cn1cc(-c2ccnc3sccc23)c(-c2ccc(F)cn2)n1 [Example 145, 4-[3-(5-Fluoro-2-pyridyl)-1-methyl-pyrazol-4-yl]thieno[2,3-b]pyridine]
52 nM | 1940 nM | Cc1nc(-c2cn(C)nc2-c2ccc(F)cn2)c2cn[nH]c2n1 [Example 124, 4-[3-(5-Fluoro-2-pyridyl)-1-methyl-pyrazol-4-yl]-6-methyl-1H-pyrazolo[3,4-d]pyrimidine]
14 nM | 115 nM | CC(C)Cn1cc(-c2ccnc3[nH]ccc23)c(-c2ccc(F)cn2)n1 [Example 61, 4-[3-(5-Fluoro-2-pyridyl)-1-isobutyl-pyrazol-4-yl]-1H-pyrrolo[2,3-b]pyridine]
24 nM | 376 nM | Cn1cc(-c2ccnc3ccsc23)c(-c2ccc(F)cn2)n1 [Example 118, 7-(3-(5-Fluoropyridin-2-yl)-1-methyl-1H-pyrazol-4-yl)thieno[3,2-b]pyridine]

— patent publication US20230339900A1, “CASEIN KINASE 1 DELTA MODULATORS” (Janssen Pharmaceutica NV, priority 2020, published 2023)
